Some test systems named below: PC-3 prostate; BT-549 breast; M14 melanoma; HOP-62 NSCLC; MDA-N; SNB-75 CNS; 786-0 renal; CAKI-1 renal; OVCAR-4 ovarian; COLO 205 colon; SW-620 colon; SF-268 CNS; SR leukemia; OVCAR-8 ovarian; ACHN renal; MDA-MB-231 breast; UACC-257 melanoma; A498 renal.
Assay in all cases: DTP human tumour cell line panel, 48 h

Structures are written as SMILES.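 In this assay, cells in 96-well plates receive the compound at five concentrations for 48 hours. Endpoints are linearly interpolated between the surrounding concentrations. TGI is the concentration that stops growth completely.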 Where a SMILES comes first, the peptide text is derived from it. The star is where a group is joined. OBn = c1ccc(CO*)cc1

`O=C(NN1C(=O)c2ccccc2C1=O)c1ccccc1Nc1ccccc1C(=O)NN1C(=O)c2ccccc2C1=O`: the TGI in the experiment with PC-3 prostate, in the experiment with BT-549 breast, in the experiment on M14 melanoma, in the experiment with HOP-62 NSCLC, in the experiment with MDA-N and in the experiment with SNB-75 CNS was above 100 µM in each case. The concentration for total growth inhibition (TGI) with 786-0 renal, in the experiment with CAKI-1 renal, in the experiment on OVCAR-4 ovarian, with COLO 205 colon, in the experiment with SW-620 colon and in the experiment with SF-268 CNS was above 100 µM each time. In addition, the concentration for total growth inhibition (TGI) with SR leukemia, in the experiment on OVCAR-8 ovarian, with ACHN renal, with MDA-MB-231 breast and with UACC-257 melanoma was above 100 µM throughout.
Turning to `NC(CCC(=O)OCc1ccccc1)C(=O)NC(CCC(=O)OCc1ccccc1)C(=O)O` (stereo not drawn) (H-Glu(OBn)-Glu(OBn)-OH; configuration not given here), the TGI in the experiment with PC-3 prostate, in the experiment on BT-549 breast, in the experiment with M14 melanoma, with HOP-62 NSCLC, in the experiment on MDA-N and with SNB-75 CNS was above 100 µM each time. Also, the TGI with 786-0 renal, in the experiment on CAKI-1 renal, with OVCAR-4 ovarian, in the experiment with COLO 205 colon, in the experiment with SW-620 colon and with SF-268 CNS was above 100 µM throughout. Besides, the TGI with SR leukemia, in the experiment on OVCAR-8 ovarian, in the experiment with ACHN renal and with MDA-MB-231 breast was above 100 µM each time.
With `N#CC(C#N)=C1CCCCc2ccc([N+](=O)[O-])cc21`, the TGI in the experiment with PC-3 prostate, in the experiment on BT-549 breast, in the experiment with M14 melanoma, with HOP-62 NSCLC, in the experiment with MDA-N and with SNB-75 CNS was above 100 µM throughout. Also, the TGI was 33 µM in the experiment with 786-0 renal; above 100 µM in the experiment on CAKI-1 renal; above 100 µM in the experiment with A498 renal; above 100 µM in the experiment with OVCAR-4 ovarian; above 100 µM with COLO 205 colon; above 100 µM with SW-620 colon. Besides, the TGI in the experiment on SF-268 CNS, with OVCAR-8 ovarian, in the experiment on ACHN renal, in the experiment with MDA-MB-231 breast and in the experiment with UACC-257 melanoma was above 100 µM throughout.
As to `COc1ccc(-c2cc(-c3ccco3)c(C#N)c(=S)n2C2OC(CO)C(O)C(O)C2O)cc1` (stereo not drawn), the TGI with PC-3 prostate, in the experiment with BT-549 breast, in the experiment on M14 melanoma, in the experiment on HOP-62 NSCLC, in the experiment with MDA-N and with SNB-75 CNS was above 100 µM in each case. The TGI with 786-0 renal, in the experiment with CAKI-1 renal, in the experiment on A498 renal, in the experiment on OVCAR-4 ovarian, in the experiment with COLO 205 colon and in the experiment with SW-620 colon was above 100 µM in each case. Moreover, the TGI with SF-268 CNS, in the experiment on OVCAR-8 ovarian, with ACHN renal, in the experiment on MDA-MB-231 breast and with UACC-257 melanoma was above 100 µM throughout.
Take `CCO/C(O)=C(/C(=N)N1CCCC1)C(=O)Nc1ccc(Cl)cc1`: the TGI in the experiment with PC-3 prostate, in the experiment with BT-549 breast, in the experiment on M14 melanoma, with HOP-62 NSCLC, in the experiment with MDA-N and in the experiment on SNB-75 CNS was above 100 µM in each case. The TGI with 786-0 renal, with CAKI-1 renal, in the experiment on A498 renal, in the experiment with OVCAR-4 ovarian, with COLO 205 colon and in the experiment on SW-620 colon was above 100 µM in each case. Further, the TGI in the experiment with SF-268 CNS, in the experiment on OVCAR-8 ovarian, in the experiment on ACHN renal, in the experiment on MDA-MB-231 breast and in the experiment with UACC-257 melanoma was above 100 µM each time.
`CCOC(=O)c1c(-c2ccccc2)[nH]c2ccc(Cl)cc2c1=O`: the TGI with PC-3 prostate, with BT-549 breast, with M14 melanoma, in the experiment with HOP-62 NSCLC, in the experiment with MDA-N and with SNB-75 CNS was above 100 µM in each case. The TGI in the experiment on 786-0 renal is above 100 µM; in the experiment with CAKI-1 renal, above 100 µM; with OVCAR-4 ovarian, 44.8 µM; with COLO 205 colon, above 100 µM; in the experiment on SW-620 colon it was above 100 µM; in the experiment with SF-268 CNS it was above 100 µM. The total growth inhibition concentration (TGI) is above 100 µM with SR leukemia; above 100 µM in the experiment with OVCAR-8 ovarian; 93.2 µM in the experiment on ACHN renal; above 100 µM in the experiment with MDA-MB-231 breast; above 100 µM in the experiment with UACC-257 melanoma.
For the compound `CC(C)C(Cl)CC/C(CBr)=C(\Cl)CCl` (stereo not drawn), the TGI is 23.9 µM with PC-3 prostate; 3.99 µM in the experiment on BT-549 breast; 4.06 µM with M14 melanoma; 31.1 µM with HOP-62 NSCLC; 5.63 µM in the experiment on MDA-N; 17 µM in the experiment with SNB-75 CNS. Besides, the TGI was 5.04 µM with 786-0 renal; 17.9 µM in the experiment on CAKI-1 renal; 35.7 µM with A498 renal; 7.34 µM with OVCAR-4 ovarian; 12.8 µM with COLO 205 colon; 4.26 µM with SW-620 colon. The TGI in the experiment with SF-268 CNS was found to be 32.1 µM; with OVCAR-8 ovarian it was 4.65 µM; with ACHN renal, 29.6 µM; with MDA-MB-231 breast it was 8.36 µM; in the experiment with UACC-257 melanoma, 11 µM.

Values taken from PubChem BioAssay (NCI).
